Series [1] relates to influenza A Puerto Rico 8/34/H1N1 (PR8) virus. The experiment in a line: microbe, parasite or virus in culture. It counts as cell-based. The settings on record: for IC50: Influenza A virus, A549, 24 h, read-out: IC50 (concentration causing 50% reduction in viral infection); for Selectivity Index (SI): ratio CC50/IC50, A549.
A further series can be described thus: MTT cytotoxicity assay. Type of series: cell-based, human. The settings on record: human. The method, then: (§1) The cytotoxicity of RSV derivatives was evaluated on A549 cells using MTT (3-(4,5-dimethylthiazol-2-yl)-2,5-diphenyl tetrazolium bromide) reagent (Sigma-Aldrich, St. Louis, MO, USA). In this assay, cells were seeded in a 96-well plate at a concentration of 2 × 10^4/well in DMEM without phenol red and supplemented with 10% FBS. The compounds were dissolved in DMSO and added to the cell monolayer. After 24 h, 10 µL of the 5 mg/mL solution of MTT was added to the cell culture, which was incubated at 37 °C for 3 h. Then, the medium was solubilized in absolute isopropanol containing 0.1 N HCl. The absorbance of converted dye was measured in an ELISA plate reader at a wavelength of 590 nm. The results were used to calculate the 50% cytotoxic concentration (CC50), defined as the concentration of RSV derivatives required to reduce cell viability by 50% compared with the solvent-treated (DMSO) control condition.
A general note: Tetrazolium assays rely on reduction of a dye to a coloured formazan, in cell work by metabolically active cells.

The test system of series [2] is influenza A PR/8/H1N1 virus. Type of series: cell-based.
Series [3] has as its system influenza A PR/8/H1N1 virus. Type of series: cell-based. The source holds these as a separate data set.
The test system of series [4] is influenza A PR/8/H1N1 virus. Type of series: cell-based. The settings on record: supernatants from A549 treated with 10-30 μg/mL, 24 h.
Series [5] deals with GSH-mediated antioxidant response. The experiment in a line: Glutathione assay in infected A549 cells. Type of series: cell-based, human. The settings on record: A549, 24 h PR8 infection and treatment. The method, then: The total glutathione was analyzed by the Glutathione Assay Kit (ADI-900-160 Enzo) following the manufacturer’s instructions. For GSSG quantification, the samples were deproteinized with metaphosphoric acid, and an aliquot was incubated with 2-vinylpyridine to derivatize the reduced form, GSH [46]. The GSH levels were obtained by the subtraction of GSSG from the total glutathione and then normalized to the protein content of each sample determined by the Bradford method (Bio-Rad, Hercules, CA, USA).

In the next series the test system is A549 cells. The experiment in a line: MTT cytotoxicity assay. It counts as cell-based, human. The method, then:
as §1

Another series has as its system GSH level. Further details: method as in PMID 15838800. The settings on record: infected conditions; cited from earlier work.
Setting [6] is: A549, MTT, 24 h, read-out: CC50 (concentration required to reduce cell viability by 50%).

These results are taken from article PMC9505218, “Nitrostilbenes: Synthesis and Biological Evaluation as Potential Anti-Influenza Virus Agents” (Pharmaceuticals, 2022).

“And” between values parts separate entries of the source, which are not always exact repeats. Equal entries are not always repeated. “Also recorded” adds a separate entry of the source. Where two headings read alike, the source gives them in different places.

Consider `Oc1ccc(/C=C/c2ccccc2)cc1Cl` [Compound 1], for which, in [1], the IC50 was 20.7 µg/mL and 89 µM; the “Selectivity Index (SI)” value worked out at 4.2. Further, the CC50 at 24 h in the series “MTT cytotoxicity assay” is 87.3 µg/mL and 378 µM.

With `Oc1ccc(/C=C/c2ccc(Cl)cc2Cl)cc1Cl` [Compound 2], in series [1], the IC50 was 13.5 µg/mL and 45 µM; the “Selectivity Index (SI)” value is 2.9. The CC50 at 24 h in “MTT cytotoxicity assay” was 39.5 µg/mL and 131 µM.

For `Oc1ccc(/C=C/c2ccc(Cl)cc2Cl)cc1` [Compound 3], in series [1], the IC50 is 12.2 µg/mL and 46 µM; the “Selectivity Index (SI)” value came to 2.4. For the same molecule, the CC50 at 24 h in the series “MTT cytotoxicity assay” was 30.3 µg/mL and 114 µM.

Consider `Oc1ccc(/C=C/c2ccc(C(F)(F)F)cc2)cc1Cl` [Compound 4], for which, in series [1], the IC50 was 14.6 µg/mL and 48 µM; the “Selectivity Index (SI)” value worked out at 2.6. Besides, in the series “MTT cytotoxicity assay”, the CC50 at 24 h was 38.8 µg/mL and 129 µM.

With `Oc1ccc(/C=C/c2ccc(C(F)(F)F)cc2)cc1` [Compound 5], in series [1], the IC50 is 23.4 µg/mL and 88 µM; the “Selectivity Index (SI)” value is recorded as 2.5. The CC50 at 24 h in “MTT cytotoxicity assay” was 59 µg/mL and 223 µM.

`O=[N+]([O-])c1ccc(/C=C/c2ccc(O)c(Cl)c2)cc1` [Compound 6]: in series [1], the “inhibition of HA expression” value is 75%; the IC50 is 17.1 µg/mL and 62 µM; the “Selectivity Index (SI)” value is on record as 12.4. Also, the CC50 at 24 h in “MTT cytotoxicity assay” (setting [6]) is 212 µg/mL and 770 µM. The “early viral nucleoprotein (NP) expression” value (“early viral nucleoprotein” below) in series [2] was “decrease”. Moreover, the “viral titer / viral particle production (HAU)” value in series [3] is “markedly decreased; also recorded: drastically reduced”. In addition, the “HA protein expression on MDCK cells infected with supernatants” value in [4] is “markedly reduced”. The “rescue of GSH-mediated antioxidant response (total glutathione, GSH/GSSG)” value (“rescue … (total glutathione, GSH/GSSG)” for short) in series [5] was “do not rescue”.

For `O=[N+]([O-])c1ccc(/C=C/c2ccc(O)cc2)cc1` [Compound 7], in series [1], the IC50 is 19.5 µg/mL and 80 µM; the “Selectivity Index (SI)” value is reported as 5.9. The CC50 at 24 h in the series “MTT cytotoxicity assay” (setting [6]) was 116 µg/mL and 481 µM. The “early viral nucleoprotein” value in [2] is given as “decrease”. Besides, the “viral titer / viral particle production (HAU)” value in [3] is given as “markedly decreased; also recorded: drastically reduced”. Moreover, in series [4], the “HA protein expression on MDCK cells infected with supernatants” value is listed as “markedly reduced”. Besides, the “rescue … (total glutathione, GSH/GSSG)” value in series [5] was “do not rescue”.

`N#Cc1ccc(/C=C/c2ccc(O)cc2)cc1` [Compound 8]: in series [1], the IC50 is 45.1 µg/mL and 203 µM; the “Selectivity Index (SI)” value is on record as 2. In addition, the CC50 at 24 h in the series “MTT cytotoxicity assay” was 92 µg/mL and 415 µM.

`COc1ccc(/C=C/c2ccc(O)cc2)cc1` [Compound 9]: in series [1], the IC50 was 31.7 µg/mL and 104 µM; the “Selectivity Index (SI)” value is given as 3.3. Also, the CC50 at 24 h in “MTT cytotoxicity assay” is 106 µg/mL and 466 µM.

A word on the melting point: it is the temperature, or range, at which the solid turns liquid. For the molecule `O=[N+]([O-])c1ccc(/C=C/c2ccc(O)c(Br)c2)cc1` [Compound 12, (E)-2-Bromo-4-(4-Nitrostyryl)Phenol], the melting point was in the range of 200.2 to 200.4 °C. Besides, in the series on A549 cells, the “cytotoxicity on the A549 cell monolayer” value was “did not show cytotoxicity”. The “rescue … (total glutathione, GSH/GSSG)” value in series [5] is given as “do not rescue”.

Turning to `O=[N+]([O-])c1cc(/C=C/c2ccc(Cl)cc2)ccc1O` [Compound 13, (E)-4-(4-Chlorostyryl)-2-Nitrophenol], the melting point fell in the range of 176.5 to 177.9 °C. Further, the “cytotoxicity on the A549 cell monolayer” value in the series with A549 cells is listed as “did not show cytotoxicity”. Moreover, in [2], the “early viral nucleoprotein” value was “decrease”. In addition, the “rescue … (total glutathione, GSH/GSSG)” value in [5] is “do not rescue”.

On to `Oc1ccc(C=Cc2cc(O)cc(O)c2)cc1` [RSV, 3,4′,5-trihydroxystilbene], for which the “rescue of GSH level” value with GSH level is on record as “did not rescue”.
